Test results from ChEMBL document CHEMBL4028801, “A multifactorial approach to hepatobiliary transporter assessment enables improved therapeutic compound development” (Toxicol Sci, 2013).

Columns and labels:
[1] = biological target: T1, ATP-binding cassette sub-family C member 4 (Homo sapiens, UniProt O15439); assay: Inhibition of human MRP4 overexpressed in Sf9 cell membrane vesicles assessed as uptake of [3H]-estradiol-17beta-D-glucuronide in presence of ATP and GSH measured after 20 mins by membrane vesicle transport assay; format: ADME, cell-based
T1 sequence (O15439 whole entry): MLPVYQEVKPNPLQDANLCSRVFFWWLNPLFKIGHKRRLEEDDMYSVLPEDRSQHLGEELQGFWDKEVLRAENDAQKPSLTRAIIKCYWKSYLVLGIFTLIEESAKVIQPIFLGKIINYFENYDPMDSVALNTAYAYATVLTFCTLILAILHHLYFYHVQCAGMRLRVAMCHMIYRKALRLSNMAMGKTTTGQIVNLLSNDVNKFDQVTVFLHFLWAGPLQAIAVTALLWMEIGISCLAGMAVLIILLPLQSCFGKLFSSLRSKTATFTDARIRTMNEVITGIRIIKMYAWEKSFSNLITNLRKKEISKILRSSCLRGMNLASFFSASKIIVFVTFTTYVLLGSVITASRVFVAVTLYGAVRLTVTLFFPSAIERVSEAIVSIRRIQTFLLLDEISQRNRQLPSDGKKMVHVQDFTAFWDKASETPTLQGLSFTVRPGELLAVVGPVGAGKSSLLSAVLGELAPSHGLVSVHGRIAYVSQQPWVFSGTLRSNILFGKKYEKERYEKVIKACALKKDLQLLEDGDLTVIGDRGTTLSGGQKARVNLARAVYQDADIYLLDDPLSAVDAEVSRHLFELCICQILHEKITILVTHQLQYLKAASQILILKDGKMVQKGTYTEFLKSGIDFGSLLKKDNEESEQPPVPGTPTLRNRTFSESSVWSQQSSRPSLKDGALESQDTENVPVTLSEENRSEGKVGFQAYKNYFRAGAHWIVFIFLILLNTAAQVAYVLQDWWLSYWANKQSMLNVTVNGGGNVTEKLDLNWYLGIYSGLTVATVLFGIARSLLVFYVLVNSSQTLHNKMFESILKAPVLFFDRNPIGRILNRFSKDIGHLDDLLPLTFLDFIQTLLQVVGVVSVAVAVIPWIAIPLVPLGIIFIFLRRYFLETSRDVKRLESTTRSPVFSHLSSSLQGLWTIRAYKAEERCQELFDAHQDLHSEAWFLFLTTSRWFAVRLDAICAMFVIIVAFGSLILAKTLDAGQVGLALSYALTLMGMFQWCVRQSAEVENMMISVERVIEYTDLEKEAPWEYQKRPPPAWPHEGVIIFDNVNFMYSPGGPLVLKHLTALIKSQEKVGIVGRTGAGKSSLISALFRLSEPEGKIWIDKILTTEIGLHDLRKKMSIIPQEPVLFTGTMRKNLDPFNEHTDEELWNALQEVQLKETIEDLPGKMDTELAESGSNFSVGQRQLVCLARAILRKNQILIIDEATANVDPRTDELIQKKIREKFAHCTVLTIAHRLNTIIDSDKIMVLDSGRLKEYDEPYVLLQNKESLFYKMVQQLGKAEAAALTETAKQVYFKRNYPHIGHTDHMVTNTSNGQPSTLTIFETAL

[2] = Drug concentration at steady state in human at 1 to 40 mg, po QD after 24 hrs; format: ADME, organism-based; conditions: in vivo, read-out: Css
[3] = biological target: Bile salt export pump (Homo sapiens, UniProt O95342); assay: Inhibition of human BSEP overexpressed in Sf9 cell membrane vesicles assessed as uptake of [3H]-taurocholate in presence of ATP measured after 15 to 20 mins by membrane vesicle transport assay; format: ADME, cell-based
Chain of Bile salt export pump (O95342 whole entry): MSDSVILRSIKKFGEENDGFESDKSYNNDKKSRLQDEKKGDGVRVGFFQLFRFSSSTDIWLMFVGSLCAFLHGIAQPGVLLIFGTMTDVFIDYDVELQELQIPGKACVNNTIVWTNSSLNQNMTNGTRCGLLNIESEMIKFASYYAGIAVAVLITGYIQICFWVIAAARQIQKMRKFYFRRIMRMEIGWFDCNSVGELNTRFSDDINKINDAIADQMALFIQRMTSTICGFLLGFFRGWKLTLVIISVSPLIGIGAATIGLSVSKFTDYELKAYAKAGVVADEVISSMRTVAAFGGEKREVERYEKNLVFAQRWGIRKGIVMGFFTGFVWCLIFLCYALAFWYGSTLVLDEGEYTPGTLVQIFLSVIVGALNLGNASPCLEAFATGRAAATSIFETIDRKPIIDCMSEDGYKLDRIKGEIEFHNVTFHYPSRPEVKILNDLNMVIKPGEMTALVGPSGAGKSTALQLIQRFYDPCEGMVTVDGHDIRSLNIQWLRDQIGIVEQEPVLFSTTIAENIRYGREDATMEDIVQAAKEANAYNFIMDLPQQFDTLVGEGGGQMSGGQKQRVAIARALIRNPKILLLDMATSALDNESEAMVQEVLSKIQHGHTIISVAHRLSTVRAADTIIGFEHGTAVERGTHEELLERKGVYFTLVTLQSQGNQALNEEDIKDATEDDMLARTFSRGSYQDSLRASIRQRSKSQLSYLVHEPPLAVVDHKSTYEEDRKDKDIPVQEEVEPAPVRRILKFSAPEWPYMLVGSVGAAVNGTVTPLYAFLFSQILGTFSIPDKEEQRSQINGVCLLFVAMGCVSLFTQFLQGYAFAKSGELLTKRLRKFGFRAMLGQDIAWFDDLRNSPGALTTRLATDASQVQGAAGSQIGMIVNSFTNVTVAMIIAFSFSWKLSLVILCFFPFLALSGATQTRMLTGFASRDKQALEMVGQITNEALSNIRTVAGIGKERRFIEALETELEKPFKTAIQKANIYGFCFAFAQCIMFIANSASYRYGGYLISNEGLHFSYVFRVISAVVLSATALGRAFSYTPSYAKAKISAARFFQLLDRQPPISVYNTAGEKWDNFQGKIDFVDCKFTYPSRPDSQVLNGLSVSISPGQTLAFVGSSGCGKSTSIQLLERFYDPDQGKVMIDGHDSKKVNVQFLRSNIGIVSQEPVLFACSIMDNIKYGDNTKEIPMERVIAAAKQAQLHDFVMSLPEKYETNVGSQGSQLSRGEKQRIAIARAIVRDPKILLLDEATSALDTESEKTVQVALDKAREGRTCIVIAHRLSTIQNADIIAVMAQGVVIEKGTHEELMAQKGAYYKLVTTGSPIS

[4] = AUC in human at 1 to 40 mg, po QD after 24 hrs; format: ADME, organism-based; conditions: in vivo
[5] = biological target: ATP-binding cassette sub-family C member 3 (Homo sapiens, UniProt O15438); assay: Inhibition of human MRP3 overexpressed in Sf9 insect cell membrane vesicles assessed as uptake of [3H]-estradiol-17beta-D-glucuronide in presence of ATP and GSH measured after 10 mins by membrane vesicle transport assay; format: ADME, cell-based
Chain of ATP-binding cassette sub-family C member 3 (O15438 whole entry): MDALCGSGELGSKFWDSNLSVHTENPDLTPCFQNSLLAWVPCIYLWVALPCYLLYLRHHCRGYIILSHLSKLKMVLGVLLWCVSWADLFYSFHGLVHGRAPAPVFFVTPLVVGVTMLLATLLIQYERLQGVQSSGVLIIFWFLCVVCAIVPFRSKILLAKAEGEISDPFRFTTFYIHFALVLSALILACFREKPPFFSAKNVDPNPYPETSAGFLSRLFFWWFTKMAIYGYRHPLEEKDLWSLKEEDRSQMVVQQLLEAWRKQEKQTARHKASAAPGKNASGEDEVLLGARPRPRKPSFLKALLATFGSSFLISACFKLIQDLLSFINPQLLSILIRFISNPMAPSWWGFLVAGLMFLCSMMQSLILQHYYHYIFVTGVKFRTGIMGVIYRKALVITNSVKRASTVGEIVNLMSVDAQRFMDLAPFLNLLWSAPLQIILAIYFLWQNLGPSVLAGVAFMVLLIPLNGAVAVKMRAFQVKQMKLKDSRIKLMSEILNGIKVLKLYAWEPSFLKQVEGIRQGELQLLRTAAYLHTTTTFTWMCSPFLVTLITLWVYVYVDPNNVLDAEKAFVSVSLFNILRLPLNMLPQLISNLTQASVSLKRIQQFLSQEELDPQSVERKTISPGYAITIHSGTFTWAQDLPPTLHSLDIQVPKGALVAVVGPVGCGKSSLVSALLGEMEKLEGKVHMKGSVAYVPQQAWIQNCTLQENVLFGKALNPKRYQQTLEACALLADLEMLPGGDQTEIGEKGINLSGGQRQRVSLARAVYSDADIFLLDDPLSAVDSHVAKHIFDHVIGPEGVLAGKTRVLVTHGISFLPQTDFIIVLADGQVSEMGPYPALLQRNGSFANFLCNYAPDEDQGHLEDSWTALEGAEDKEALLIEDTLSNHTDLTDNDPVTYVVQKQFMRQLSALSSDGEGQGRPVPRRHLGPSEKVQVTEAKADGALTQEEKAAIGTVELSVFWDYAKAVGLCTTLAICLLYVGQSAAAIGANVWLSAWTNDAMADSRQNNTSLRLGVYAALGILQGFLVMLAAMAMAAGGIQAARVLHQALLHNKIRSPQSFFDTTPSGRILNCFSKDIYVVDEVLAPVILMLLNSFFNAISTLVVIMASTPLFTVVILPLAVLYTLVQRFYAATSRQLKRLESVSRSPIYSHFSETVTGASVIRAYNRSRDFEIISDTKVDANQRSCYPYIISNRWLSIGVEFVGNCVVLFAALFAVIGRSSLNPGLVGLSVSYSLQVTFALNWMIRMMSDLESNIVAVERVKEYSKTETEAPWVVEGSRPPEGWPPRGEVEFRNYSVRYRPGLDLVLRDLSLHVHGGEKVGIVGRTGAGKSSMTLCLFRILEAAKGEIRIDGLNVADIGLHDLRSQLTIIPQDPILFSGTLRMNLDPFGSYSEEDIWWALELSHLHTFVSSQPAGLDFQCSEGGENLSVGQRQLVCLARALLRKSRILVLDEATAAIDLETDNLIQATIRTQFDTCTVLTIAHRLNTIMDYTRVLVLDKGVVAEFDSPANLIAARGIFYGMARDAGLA

[6] = biological target: ATP-binding cassette sub-family C member 2 (Homo sapiens, UniProt Q92887); assay: Inhibition of human MRP2 overexpressed in Sf9 cell membrane vesicles assessed as uptake of [3H]-estradiol-17beta-D-glucuronide in presence of ATP and GSH measured after 20 mins by membrane vesicle transport assay
Chain of ATP-binding cassette sub-family C member 2 (Q92887 whole entry): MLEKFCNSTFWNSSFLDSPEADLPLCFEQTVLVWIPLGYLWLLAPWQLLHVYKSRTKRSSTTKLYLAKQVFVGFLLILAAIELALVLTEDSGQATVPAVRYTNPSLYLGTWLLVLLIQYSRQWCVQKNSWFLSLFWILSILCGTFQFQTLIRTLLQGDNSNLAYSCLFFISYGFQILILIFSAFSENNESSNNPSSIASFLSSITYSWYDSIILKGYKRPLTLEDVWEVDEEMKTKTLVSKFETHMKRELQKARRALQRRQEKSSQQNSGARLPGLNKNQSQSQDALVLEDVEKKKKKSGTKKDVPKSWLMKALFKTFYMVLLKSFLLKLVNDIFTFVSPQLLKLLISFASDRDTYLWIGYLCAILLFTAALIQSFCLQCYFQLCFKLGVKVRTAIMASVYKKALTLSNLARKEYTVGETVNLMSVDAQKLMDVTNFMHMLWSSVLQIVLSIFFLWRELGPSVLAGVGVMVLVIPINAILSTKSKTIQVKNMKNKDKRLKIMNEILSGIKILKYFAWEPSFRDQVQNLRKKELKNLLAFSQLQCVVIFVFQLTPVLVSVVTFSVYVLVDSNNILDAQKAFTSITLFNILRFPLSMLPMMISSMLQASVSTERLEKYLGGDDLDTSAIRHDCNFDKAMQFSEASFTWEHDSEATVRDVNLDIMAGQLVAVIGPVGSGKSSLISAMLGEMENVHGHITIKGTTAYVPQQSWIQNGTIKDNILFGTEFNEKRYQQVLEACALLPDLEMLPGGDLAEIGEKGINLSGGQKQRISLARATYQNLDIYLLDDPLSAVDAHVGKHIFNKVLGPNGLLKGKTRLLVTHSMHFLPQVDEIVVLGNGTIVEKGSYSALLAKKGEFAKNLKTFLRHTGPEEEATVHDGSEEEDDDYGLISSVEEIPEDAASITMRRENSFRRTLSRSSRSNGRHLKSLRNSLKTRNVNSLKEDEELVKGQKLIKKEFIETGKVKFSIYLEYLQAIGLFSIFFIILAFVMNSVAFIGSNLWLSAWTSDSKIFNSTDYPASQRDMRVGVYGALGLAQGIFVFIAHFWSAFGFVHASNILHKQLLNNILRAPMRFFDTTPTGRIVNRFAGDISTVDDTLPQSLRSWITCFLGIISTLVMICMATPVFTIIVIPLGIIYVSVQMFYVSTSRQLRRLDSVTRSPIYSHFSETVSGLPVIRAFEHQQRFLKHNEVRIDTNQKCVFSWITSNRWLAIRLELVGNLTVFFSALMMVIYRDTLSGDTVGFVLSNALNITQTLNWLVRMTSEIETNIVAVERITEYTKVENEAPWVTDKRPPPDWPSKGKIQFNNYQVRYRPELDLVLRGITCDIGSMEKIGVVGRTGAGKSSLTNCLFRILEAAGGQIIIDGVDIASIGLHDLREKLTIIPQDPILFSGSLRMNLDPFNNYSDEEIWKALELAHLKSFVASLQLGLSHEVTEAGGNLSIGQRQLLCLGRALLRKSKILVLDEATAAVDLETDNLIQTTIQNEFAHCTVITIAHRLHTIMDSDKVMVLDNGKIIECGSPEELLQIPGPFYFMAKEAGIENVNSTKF

[7] = Ratio of drug concentration at steady state in human at 9 mg, po QD after 24 hrs to IC50 for human BSEP overexpressed in Sf9 insect cells; format: ADME, organism-based; conditions: in vivo
[8] = Ratio of drug concentration at steady state in human at 9 mg, po QD after 24 hrs to IC50 for human MRP3 overexpressed in Sf9 insect cells; format: ADME, organism-based; conditions: in vivo
[9] = Drug concentration at steady state in human at 9 mg, po QD after 24 hrs; format: ADME, organism-based; conditions: in vivo, read-out: Css
[10] = AUC in human at 9 mg, po QD after 24 hrs; format: ADME, organism-based; design: time < 24 hr, dose 9 mg, route oral; conditions: in vivo
[11] = Ratio of drug concentration at steady state in human at 9 mg, po QD after 24 hrs to IC50 for human MRP4 overexpressed in Sf9 insect cells; format: ADME, organism-based; conditions: in vivo
[12] = Drug concentration at steady state in human at 0.5 mg, po QD after 24 hrs; format: ADME, organism-based; conditions: in vivo, read-out: Css
[13] = AUC in human at 0.5 mg, po QD after 24 hrs; format: ADME, organism-based; design: time < 24 hr, dose 0.5 mg, route oral; conditions: in vivo
[14] = Ratio of drug concentration at steady state in human at 0.5 mg, po QD after 24 hrs to IC50 for human BSEP overexpressed in Sf9 insect cells; format: ADME, organism-based; conditions: in vivo
[15] = AUC in human at 10 mg, po after 24 hrs; format: ADME, organism-based; design: time < 24 hr, dose 10 mg, route oral; conditions: in vivo
[16] = Ratio of drug concentration at steady state in human at 10 mg, po after 24 hrs to IC50 for human BSEP overexpressed in Sf9 insect cells; format: ADME, organism-based; conditions: in vivo
[17] = Drug concentration at steady state in human at 10 mg, po after 24 hrs; format: ADME, organism-based; conditions: in vivo, read-out: Css
[18] = Drug concentration at steady state in human at 2.5 to 10 mg, po QD after 24 hrs; format: ADME, organism-based; conditions: in vivo, read-out: Css
[19] = Ratio of drug concentration at steady state in human at 2.5 to 10 mg, po QD after 24 hrs to IC50 for human BSEP overexpressed in Sf9 insect cells; format: ADME, organism-based; conditions: in vivo
[20] = AUC in human at 2.5 to 10 mg, po QD after 24 hrs; format: ADME, organism-based; conditions: in vivo
[21] = Ratio of drug concentration at steady state in human at 1.5 ug administered as 1 drop intraocularly QD after 24 hrs to IC50 for human BSEP overexpressed in Sf9 insect cells; format: ADME; conditions: in vivo, topical_or_ocular
[22] = AUC in human at 1.5 ug administered as 1 drop intraocularly QD after 24 hrs; format: ADME; design: dose 1.5 ug, time < 24 hr, route intraocular; conditions: in vivo, topical or ocular
[23] = Drug concentration at steady state in human at 1.5 ug administered as 1 drop intraocularly QD after 24 hrs; format: ADME; conditions: in vivo, topical or ocular, read-out: Css

Row | SMILES | IC50 [1] [µM] | IC50 [3] [µM] | IC50 [5] [µM] | IC50 [6] [µM] | further results
1 | Cl.OCCN1CCN(CCCN2c3ccccc3Sc3ccc(C(F)(F)F)cc32)CC1 | > 133 | 87.3 | > 133 | > 133 | concentration at 24 h [2]: 1 nM; AUC at 24 h [4]: 0.03 µM·h
2 | CCCC1O[C@@H]2C[C@H]3[C@@H]4CCC5=CC(=O)C=C[C@]5(C)[C@H]4[C@@H](O)C[C@]3(C)[C@]2(C(=O)CO)O1 (stereo partly drawn) [BUDESONIDE] | 37 | 46 | 54.5 | > 133 | Ratio [7]: 0.00001; Ratio [8]: 0; concentration at 24 h [9]: 0.629 nM; AUC at 24 h [10]: 0.0151 µM·h; Ratio [11]: 0
3 | C[C@]12C=CC(=O)N[C@@H]1CC[C@@H]1[C@@H]2CC[C@]2(C)[C@@H](C(=O)Nc3cc(C(F)(F)F)ccc3C(F)(F)F)CC[C@@H]12 [DUTASTERIDE] | > 133 | 29.8 | > 133 | > 133 | concentration at 24 h [12]: 3 nM; AUC at 24 h [13]: 0.078 µM·h; Ratio [14]: 0.00011
4 | O=C1[C@H](CC[C@H](O)c2ccc(F)cc2)[C@@H](c2ccc(O)cc2)N1c1ccc(F)cc1 [EZETIMIBE] | > 133 | 56 | > 133 | > 133 | AUC at 24 h [15]: 3.2 µM·h; Ratio [16]: 0.002; concentration at 24 h [17]: 134 nM
5 | CCOC(=O)C1=C(C)NC(C)=C(C(=O)OC)C1c1cccc(Cl)c1Cl (stereo not drawn) [FELODIPINE] | > 133 | 69.7 | > 133 | > 133 | concentration at 24 h [18]: 4 nM; Ratio [19]: 0.00006; AUC at 24 h [20]: 0.107 µM·h
6 | CC(C)OC(=O)CCC/C=C\C[C@@H]1[C@@H](CC[C@@H](O)CCc2ccccc2)[C@H](O)C[C@@H]1O [LATANOPROST] | > 133 | 12.9 | > 133 | > 133 | Ratio [21]: 0.00015; AUC at 24 h [22]: 0.047 µM·h; concentration at 24 h [23]: 2 nM
